{"source": "patent US8173175B2", "about": "“Ethanolic and/or aqueous composition of an ammoniacal solution of alkaline metal salts of azide, mainly sodium and potassium” (priority 2005, dated 2012)", "origin": "cited, not measured here", "key": {"grapevine buds": {"test_system": "grapevine buds", "conditions": "Nir and Lavee 1993"}, "catalase": {"test_system": "catalase", "conditions": "grapevine buds (Nir and Lavee 1993); for H2CN2 according to the manufacturer"}}}
{"smiles": "Nc1ncn[nH]1", "note": "[1,4-triazolamine]", "values": [{"measurement": "effect on the budding", "setting": "grapevine buds", "result": "does not have any effect on the budding"}, {"measurement": "inhibition of catalase activity", "setting": "catalase", "result": "able of inhibit the catalase activity"}]}
{"smiles": "N#CN", "note": "[H2CN2, hydrogen cyanamide]", "values": [{"measurement": "inhibition of catalase activity", "setting": "catalase", "result": "inhibition of the enzyme catalase"}, {"measurement": "European Union toxicity classification", "setting": "EU catalogue", "result": "toxic, harmful compound in contact with the skin and eyes and skin irritant"}, {"measurement": "USEPA toxicity category", "setting": "United States Environmental Protection Agency classification", "result": "category I (acute toxic)"}]}
